Measured values from PMC7756582, “Prodrugs of γ‐Alkyl‐Modified Nucleoside Triphosphates: Improved Inhibition of HIV Reverse Transcriptase” (Angewandte Chemie (International Ed. in English), 2020).

Biological target: T1, human DNA polymerase γ (Homo sapiens, UniProt P54098)
T1 construct: purchased Roboklon
T1 sequence (P54098 1-1239): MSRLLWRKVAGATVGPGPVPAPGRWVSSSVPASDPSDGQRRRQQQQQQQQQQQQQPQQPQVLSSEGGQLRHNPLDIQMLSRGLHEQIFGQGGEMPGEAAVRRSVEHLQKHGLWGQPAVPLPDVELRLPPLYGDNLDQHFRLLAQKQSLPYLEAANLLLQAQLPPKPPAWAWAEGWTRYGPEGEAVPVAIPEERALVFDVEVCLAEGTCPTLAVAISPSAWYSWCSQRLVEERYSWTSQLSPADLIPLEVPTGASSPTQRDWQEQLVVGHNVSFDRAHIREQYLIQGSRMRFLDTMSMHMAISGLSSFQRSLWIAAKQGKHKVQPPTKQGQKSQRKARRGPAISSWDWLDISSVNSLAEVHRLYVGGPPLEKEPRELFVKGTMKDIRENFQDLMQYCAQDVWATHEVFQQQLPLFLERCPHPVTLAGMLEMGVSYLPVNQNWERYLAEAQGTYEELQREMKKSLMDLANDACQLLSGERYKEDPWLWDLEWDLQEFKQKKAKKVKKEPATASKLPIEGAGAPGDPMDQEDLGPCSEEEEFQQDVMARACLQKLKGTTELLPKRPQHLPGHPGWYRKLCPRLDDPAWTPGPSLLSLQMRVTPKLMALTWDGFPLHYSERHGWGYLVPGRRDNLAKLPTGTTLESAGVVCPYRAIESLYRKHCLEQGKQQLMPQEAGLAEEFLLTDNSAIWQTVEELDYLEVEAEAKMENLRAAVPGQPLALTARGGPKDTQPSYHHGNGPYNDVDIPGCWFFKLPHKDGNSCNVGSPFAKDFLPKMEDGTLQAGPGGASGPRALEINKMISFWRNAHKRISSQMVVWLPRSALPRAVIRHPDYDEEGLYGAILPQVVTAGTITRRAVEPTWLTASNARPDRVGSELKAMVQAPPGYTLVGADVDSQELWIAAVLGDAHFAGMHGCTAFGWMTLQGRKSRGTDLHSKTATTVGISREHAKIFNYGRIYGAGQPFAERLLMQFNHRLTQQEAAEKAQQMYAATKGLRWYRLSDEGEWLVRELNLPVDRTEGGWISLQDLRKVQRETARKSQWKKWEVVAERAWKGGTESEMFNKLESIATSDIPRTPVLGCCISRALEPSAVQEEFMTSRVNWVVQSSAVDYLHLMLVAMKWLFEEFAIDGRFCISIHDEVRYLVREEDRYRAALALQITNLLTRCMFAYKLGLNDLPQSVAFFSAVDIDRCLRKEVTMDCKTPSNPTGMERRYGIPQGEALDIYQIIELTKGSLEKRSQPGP
Assay: Primer extension assay with human DNA polymerase γ
Format: biochemical
Conditions: dNTPs 250 μM, Pol γ 4 U
Protocol: Two different set‐ups have been used. First, a mixture of dATP, dCTP, dGTP, and γ‐alkyl‐TTP (N*) or ‐d4TTP (T*) was used as a mixture. The results obtained from these experiments were compared to those in which just γ‐alkyl‐TTP (N) or d4TTP (T) was used. In each experiment a primer extension without added polymerase (negative control, ‐ lane) and an experiment in which all four canonical NTPs were added (positive control, +lane) were used as controls.
Anti-HIV activity assay: Inhibition of HIV-1(IIIB)- and HIV-2(ROD)-induced cytopathicity in wild-type CEM/0 and thymidine kinase-deficient CEM/TK- cell cultures was measured in microtiter 96-well plates containing ~3·105 CEM cells/mL infected with 100 CCID50 of HIV per milliliter and containing appropriate dilutions of the test compounds. After 4−5 days of incubation at 37 °C in a CO2-controlled humidified atmosphere, CEM giant (syncytium) cell formation was examined microscopically. The EC50 (50% effective concentration) was defined as the compound concentration required to inhibit HIV-induced giant cell formation by 50%. […]
2) For HIV- RT assay: The final assay solution (10 µL) consists of 50 mM Tris-HCl (pH 8.6 at 22 °C), 10 mM MgCl2, 40mM KCl, dNTPs 66 µM, HIV RT 6 U, Hybrid 0.32 µM in a reaction volume of 10 µL, incubated 37 °C for 15 min, 80 °C for 3 min; 50 mA, 45w for 4 h. […] The result was visualized by fluorescence imaging. […]

Cc1cn(C2C=CC(COP(=O)(O)OP(=O)(O)OP(=O)(O)O)O2)c(=O)[nH]c1=O (stereo not shown) [2 t, d4TTP, reference compound]
primer extension by DNA polymerase γ (substrate properties): not substrates
